# According to article PMC10041525, “New Dual Inhibitors of Bacterial Topoisomerases with Broad-Spectrum Antibacterial Activity and In Vivo Efficacy against Vancomycin-Intermediate Staphylococcus aureus” (Journal of Medicinal Chemistry, 2023):
# Read-outs that look alike come from different tables or passages of the source.
# Columns and labels:
# [1] = system: 100 A. baumannii strains (50 MDR, 50 non-MDR); experiment: MIC broth microdilution at IHMA Europe, panel of 100 strains; type: cell-based; conditions: for MIC / MIC50 / MIC90: Acinetobacter baumannii; for MIC50: read-out: MIC 50; for MIC90: read-out: MIC 90
# [2] = system: N. gonorrhoeae ATCC 49226; experiment: IHMA QC MIC; type: cell-based; conditions: Neisseria gonorrhoeae, ATCC49226; QC strain N. gonorrhoeae ATCC 49226, test date 2021-11-18; read-out: MIC
# Description: Supplement jm2c01905_si_004.xlsx, sheet "QC" | column: MIC [µg/mL]
smiles,measurement,setting,value
O=C(O)c1cn(C2CC2)c2cc(N3CCNCC3)c(F)cc2c1=O [ciprofloxacin],MIC,"[1]; A. baumannii IHMA 1769393, Lithuania 2018, Non-MDR, read-out: MIC",0.5 µg/mL
same,MIC,"[1]; A. baumannii IHMA 1769782, Israel 2018, MDR, read-out: MIC",> 16 µg/mL
same,MIC,"[1]; A. baumannii IHMA 1769910, Israel 2018, Non-MDR, read-out: MIC",1 µg/mL
same,MIC,"[1]; A. baumannii IHMA 1790317, Czech Republic 2018, Non-MDR, read-out: MIC",≤ 0.06 µg/mL
same,MIC,"[1]; A. baumannii IHMA 1790916, Romania 2018, Non-MDR, read-out: MIC",≤ 0.06 µg/mL
same,MIC,"[1]; A. baumannii IHMA 1791877, Israel 2018, MDR, read-out: MIC",> 16 µg/mL
same,MIC,"[1]; A. baumannii IHMA 1792961, Jordan 2018, MDR, read-out: MIC",> 16 µg/mL
same,MIC,"[1]; A. baumannii IHMA 1795669, Tunisia 2018, Non-MDR, read-out: MIC",≤ 0.06 µg/mL
same,MIC,"[1]; A. baumannii IHMA 1814276, Lebanon 2018, MDR, read-out: MIC",> 16 µg/mL
same,MIC,"[1]; A. baumannii IHMA 1815198, Kuwait 2018, MDR, read-out: MIC",> 16 µg/mL
same,MIC,"[1]; A. baumannii IHMA 1815856, Israel 2018, MDR, read-out: MIC",> 16 µg/mL
same,MIC,"[1]; A. baumannii IHMA 1830924, United Kingdom 2018, Non-MDR, read-out: MIC",0.5 µg/mL
same,MIC,"[1]; A. baumannii IHMA 1849819, Kuwait 2018, MDR, read-out: MIC",> 16 µg/mL
same,MIC,"[1]; A. baumannii IHMA 1849829, Kuwait 2018, Non-MDR, read-out: MIC",≤ 0.06 µg/mL
same,MIC,"[1]; A. baumannii IHMA 1926285, Qatar 2018, Non-MDR, read-out: MIC",≤ 0.06 µg/mL
same,MIC,"[1]; A. baumannii IHMA 1926288, Qatar 2018, MDR, read-out: MIC",> 16 µg/mL
same,MIC,"[1]; A. baumannii IHMA 1963732, Turkey 2019, MDR, read-out: MIC",> 16 µg/mL
same,MIC,"[1]; A. baumannii IHMA 1967860, Spain 2019, Non-MDR, read-out: MIC",1 µg/mL
same,MIC,"[1]; A. baumannii IHMA 1971673, Latvia 2019, MDR, read-out: MIC",> 16 µg/mL
same,MIC,"[1]; A. baumannii IHMA 1983151, Greece 2019, MDR, read-out: MIC",> 16 µg/mL
same,MIC,"[1]; A. baumannii IHMA 1984665, Lithuania 2019, MDR, read-out: MIC",> 16 µg/mL
same,MIC,"[1]; A. baumannii IHMA 1986738, Turkey 2019, MDR, read-out: MIC",> 16 µg/mL
same,MIC,"[1]; A. baumannii IHMA 1987162, Croatia 2019, MDR, read-out: MIC",> 16 µg/mL
same,MIC,"[1]; A. baumannii IHMA 1993615, Turkey 2019, MDR, read-out: MIC",> 16 µg/mL
same,MIC,"[1]; A. baumannii IHMA 1994284, Italy 2019, MDR, read-out: MIC",> 16 µg/mL
same,MIC,"[1]; A. baumannii IHMA 2003279, Turkey 2019, MDR, read-out: MIC",> 16 µg/mL
same,MIC,"[1]; A. baumannii IHMA 2014931, South Africa 2019, Non-MDR, read-out: MIC",2 µg/mL
same,MIC,"[1]; A. baumannii IHMA 2020360, Croatia 2019, MDR, read-out: MIC",> 16 µg/mL
same,MIC,"[1]; A. baumannii IHMA 2031511, Greece 2019, Non-MDR, read-out: MIC",≤ 0.06 µg/mL
same,MIC,"[1]; A. baumannii IHMA 2031524, Greece 2019, MDR, read-out: MIC",> 16 µg/mL
same,MIC,"[1]; A. baumannii IHMA 2035089, Serbia 2019, MDR, read-out: MIC",> 16 µg/mL
same,MIC,"[1]; A. baumannii IHMA 2038976, Hungary 2019, MDR, read-out: MIC",> 16 µg/mL
same,MIC,"[1]; A. baumannii IHMA 2051503, Serbia 2019, MDR, read-out: MIC",> 16 µg/mL
same,MIC,"[1]; A. baumannii IHMA 2065587, France 2019, Non-MDR, read-out: MIC",≤ 0.06 µg/mL
same,MIC,"[1]; A. baumannii IHMA 2129256, Qatar 2019, Non-MDR, read-out: MIC",≤ 0.06 µg/mL
same,MIC,"[1]; A. baumannii IHMA 2154584, Israel 2020, MDR, read-out: MIC",> 16 µg/mL
same,MIC,"[1]; A. baumannii IHMA 2155340, Kenya 2020, MDR, read-out: MIC",> 16 µg/mL
same,MIC,"[1]; A. baumannii IHMA 2156634, Turkey 2020, MDR, read-out: MIC",> 16 µg/mL
same,MIC,"[1]; A. baumannii IHMA 2156709, Turkey 2020, MDR, read-out: MIC",> 16 µg/mL
same,MIC,"[1]; A. baumannii IHMA 2177232, Lithuania 2020, MDR, read-out: MIC",> 16 µg/mL
same,MIC,"[1]; A. baumannii IHMA 2177489, Lithuania 2020, MDR, read-out: MIC",> 16 µg/mL
same,MIC,"[1]; A. baumannii IHMA 2178574, Ukraine 2020, Non-MDR, read-out: MIC",≤ 0.06 µg/mL
same,MIC,"[1]; A. baumannii IHMA 2180142, Malaysia 2020, MDR, read-out: MIC",> 16 µg/mL
same,MIC,"[1]; A. baumannii IHMA 2181370, Morocco 2020, MDR, read-out: MIC",> 16 µg/mL
same,MIC,"[1]; A. baumannii IHMA 2183729, Argentina 2020, MDR, read-out: MIC",> 16 µg/mL
same,MIC,"[1]; A. baumannii IHMA 2193375, Venezuela 2020, MDR, read-out: MIC",> 16 µg/mL
same,MIC,"[1]; A. baumannii IHMA 2193485, Venezuela 2020, Non-MDR, read-out: MIC",≤ 0.06 µg/mL
same,MIC,"[1]; A. baumannii IHMA 2193607, Venezuela 2020, MDR, read-out: MIC",> 16 µg/mL
same,MIC,"[1]; A. baumannii IHMA 2195460, Italy 2020, MDR, read-out: MIC",> 16 µg/mL
same,MIC,"[1]; A. baumannii IHMA 2196914, South Africa 2020, MDR, read-out: MIC",> 16 µg/mL
same,MIC,"[1]; A. baumannii IHMA 2196959, South Africa 2020, MDR, read-out: MIC",> 16 µg/mL
same,MIC,"[1]; A. baumannii IHMA 2203763, Spain 2020, MDR, read-out: MIC",> 16 µg/mL
same,MIC,"[1]; A. baumannii IHMA 2205144, Korea, South 2020, MDR, read-out: MIC",> 16 µg/mL
same,MIC,"[1]; A. baumannii IHMA 2206459, Taiwan 2020, MDR, read-out: MIC",> 16 µg/mL
same,MIC,"[1]; A. baumannii IHMA 2206507, Taiwan 2020, Non-MDR, read-out: MIC",≤ 0.06 µg/mL
same,MIC,"[1]; A. baumannii IHMA 2216586, Taiwan 2020, MDR, read-out: MIC",> 16 µg/mL
same,MIC,"[1]; A. baumannii IHMA 2224017, Panama 2020, MDR, read-out: MIC",> 16 µg/mL
same,MIC,"[1]; A. baumannii IHMA 2231797, Greece 2020, MDR, read-out: MIC",> 16 µg/mL
same,MIC,"[1]; A. baumannii IHMA 2233099, Guatemala 2020, MDR, read-out: MIC",> 16 µg/mL
same,MIC,"[1]; A. baumannii IHMA 2233430, Kazakhstan 2020, MDR, read-out: MIC",> 16 µg/mL
same,MIC,"[1]; A. baumannii IHMA 2238964, Thailand 2020, MDR, read-out: MIC",> 16 µg/mL
same,MIC,"[1]; A. baumannii IHMA 2261047, Belgium 2020, MDR, read-out: MIC",> 16 µg/mL
same,MIC,"[1]; A. baumannii IHMA 2274234, South Africa 2020, MDR, read-out: MIC",> 16 µg/mL
same,MIC,"[1]; A. baumannii IHMA 2274364, South Africa 2020, MDR, read-out: MIC",> 16 µg/mL
same,MIC,"[1]; A. baumannii IHMA 2275751, Jordan 2020, MDR, read-out: MIC",> 16 µg/mL
same,MIC,"[1]; A. baumannii IHMA 2316205, United States 2020, MDR, read-out: MIC",> 16 µg/mL
same,MIC,"[1]; MDR n = 50, read-out: MAX (maximum MIC; all strains inhibited)",> 16 µg/mL
same,MIC50,[1]; MDR n = 50,> 16 µg/mL
same,MIC90,[1]; MDR n = 50,> 16 µg/mL
same,MIC,"[1]; MDR n = 50, read-out: MIN (minimum MIC)",> 16 µg/mL
same,MIC,"[1]; all isolates n = 100, read-out: MAX (maximum MIC; all strains inhibited)",> 16 µg/mL
same,MIC50,[1]; all isolates n = 100,2 µg/mL
same,MIC90,[1]; all isolates n = 100,> 16 µg/mL
same,MIC,"[1]; all isolates n = 100, read-out: MIN (minimum MIC)",≤ 0.06 µg/mL
same,MIC,"[1]; non-MDR n = 50, read-out: MAX (maximum MIC)",2 µg/mL
same,MIC,"[1]; non-MDR n = 50, read-out: MIN (minimum MIC)",≤ 0.06 µg/mL
same,Percentage I,[1]; MDR n = 50,0%
same,Percentage R,[1]; MDR n = 50,100%
same,Percentage S,[1]; MDR n = 50,0%
same,Percentage I,[1]; non-MDR n = 50,2%
same,Percentage R,[1]; non-MDR n = 50,0%
same,Percentage S,[1]; non-MDR n = 50,98%
same,MIC,[2],0.004 µg/mL
